This is an account of results in ChEMBL document CHEMBL1201862, “PubChem BioAssay data set” (2004).

One may read the EC50 as the concentration giving half of the maximal effect. A word on the IC50: it is the midpoint of a concentration-inhibition curve. In general, CC50 refers to the concentration giving 50% cytotoxicity. One may read the AC50 as the concentration at which the activity in the assay is half-maximal.

Assay [1] can be described thus: A cytotoxicity screen of small molecule inhibitors of the PhoP region in Salmonella typhi identified in the primary screen. [Related pubchem assays: 1850, 1864, 1985 ]. Type of assay: functional.
For a further assay, the target named is T1, Aspartyl aminopeptidase (Plasmodium falciparum 3D7, UniProt Q8I2J3).
T1 sequence (Q8I2J3 whole entry): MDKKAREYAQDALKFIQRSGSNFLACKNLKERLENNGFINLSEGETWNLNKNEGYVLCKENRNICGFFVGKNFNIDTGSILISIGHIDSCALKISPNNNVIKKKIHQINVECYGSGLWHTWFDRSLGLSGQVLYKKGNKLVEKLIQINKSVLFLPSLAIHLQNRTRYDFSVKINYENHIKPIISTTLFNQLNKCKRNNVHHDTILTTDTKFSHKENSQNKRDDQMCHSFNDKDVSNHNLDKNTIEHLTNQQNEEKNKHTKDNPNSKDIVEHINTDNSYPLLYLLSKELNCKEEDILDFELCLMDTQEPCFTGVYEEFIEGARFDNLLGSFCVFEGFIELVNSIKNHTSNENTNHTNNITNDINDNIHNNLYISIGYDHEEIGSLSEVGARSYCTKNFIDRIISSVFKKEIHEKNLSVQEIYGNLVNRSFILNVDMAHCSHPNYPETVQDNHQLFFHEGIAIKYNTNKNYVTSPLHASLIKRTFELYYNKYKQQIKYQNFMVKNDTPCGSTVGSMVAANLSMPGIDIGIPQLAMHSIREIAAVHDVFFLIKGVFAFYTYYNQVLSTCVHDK

The target of a further assay is Procathepsin L (Homo sapiens, UniProt P07711).
Chain of Procathepsin L (P07711 whole entry): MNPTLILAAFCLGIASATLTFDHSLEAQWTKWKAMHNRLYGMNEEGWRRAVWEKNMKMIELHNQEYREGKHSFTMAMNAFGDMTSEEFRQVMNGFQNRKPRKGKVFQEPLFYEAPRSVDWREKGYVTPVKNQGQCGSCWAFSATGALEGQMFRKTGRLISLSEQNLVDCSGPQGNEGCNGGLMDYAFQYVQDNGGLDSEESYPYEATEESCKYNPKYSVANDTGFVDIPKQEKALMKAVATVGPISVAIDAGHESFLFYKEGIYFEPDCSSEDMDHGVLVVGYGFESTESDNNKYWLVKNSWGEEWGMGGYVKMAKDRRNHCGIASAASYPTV
The nature of assay [2]: A Cell Based Secondary Assay To Explore Cytotoxicity of Compounds that Sensitize Mycobacterium Tuberculosis to Beta-Lactam Antibiotics. Type of assay: functional.
In assay [3] the target is Peroxisome proliferator-activated receptor gamma/Nuclear receptor coactivator 2 (Homo sapiens, UniProt P37231). The class given is functional.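 Further: agonist potency for raising coactivator recruitment to the receptor.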
Assay [4] deals with Peroxisome proliferator-activated receptor gamma/Nuclear receptor coactivator 1 (Homo sapiens, UniProt P37231). The class given is functional.
Chain of Peroxisome proliferator-activated receptor gamma/Nuclear receptor coactivator 1 (P37231 whole entry): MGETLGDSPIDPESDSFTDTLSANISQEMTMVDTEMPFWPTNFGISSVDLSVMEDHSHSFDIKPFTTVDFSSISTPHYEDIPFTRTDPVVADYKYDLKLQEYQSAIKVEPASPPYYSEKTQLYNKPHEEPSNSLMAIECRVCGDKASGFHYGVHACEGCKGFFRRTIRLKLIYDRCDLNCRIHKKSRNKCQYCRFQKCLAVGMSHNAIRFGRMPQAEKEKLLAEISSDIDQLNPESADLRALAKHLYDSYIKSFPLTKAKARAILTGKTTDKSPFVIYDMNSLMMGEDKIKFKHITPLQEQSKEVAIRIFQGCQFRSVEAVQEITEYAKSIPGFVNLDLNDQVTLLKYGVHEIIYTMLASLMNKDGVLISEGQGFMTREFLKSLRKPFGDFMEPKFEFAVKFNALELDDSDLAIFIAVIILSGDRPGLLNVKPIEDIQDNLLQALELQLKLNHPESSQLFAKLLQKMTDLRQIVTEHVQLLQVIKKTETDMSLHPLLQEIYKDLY
Chain of Peroxisome proliferator-activated receptor gamma/Nuclear receptor coactivator 1 (Q15788 whole entry, further chain): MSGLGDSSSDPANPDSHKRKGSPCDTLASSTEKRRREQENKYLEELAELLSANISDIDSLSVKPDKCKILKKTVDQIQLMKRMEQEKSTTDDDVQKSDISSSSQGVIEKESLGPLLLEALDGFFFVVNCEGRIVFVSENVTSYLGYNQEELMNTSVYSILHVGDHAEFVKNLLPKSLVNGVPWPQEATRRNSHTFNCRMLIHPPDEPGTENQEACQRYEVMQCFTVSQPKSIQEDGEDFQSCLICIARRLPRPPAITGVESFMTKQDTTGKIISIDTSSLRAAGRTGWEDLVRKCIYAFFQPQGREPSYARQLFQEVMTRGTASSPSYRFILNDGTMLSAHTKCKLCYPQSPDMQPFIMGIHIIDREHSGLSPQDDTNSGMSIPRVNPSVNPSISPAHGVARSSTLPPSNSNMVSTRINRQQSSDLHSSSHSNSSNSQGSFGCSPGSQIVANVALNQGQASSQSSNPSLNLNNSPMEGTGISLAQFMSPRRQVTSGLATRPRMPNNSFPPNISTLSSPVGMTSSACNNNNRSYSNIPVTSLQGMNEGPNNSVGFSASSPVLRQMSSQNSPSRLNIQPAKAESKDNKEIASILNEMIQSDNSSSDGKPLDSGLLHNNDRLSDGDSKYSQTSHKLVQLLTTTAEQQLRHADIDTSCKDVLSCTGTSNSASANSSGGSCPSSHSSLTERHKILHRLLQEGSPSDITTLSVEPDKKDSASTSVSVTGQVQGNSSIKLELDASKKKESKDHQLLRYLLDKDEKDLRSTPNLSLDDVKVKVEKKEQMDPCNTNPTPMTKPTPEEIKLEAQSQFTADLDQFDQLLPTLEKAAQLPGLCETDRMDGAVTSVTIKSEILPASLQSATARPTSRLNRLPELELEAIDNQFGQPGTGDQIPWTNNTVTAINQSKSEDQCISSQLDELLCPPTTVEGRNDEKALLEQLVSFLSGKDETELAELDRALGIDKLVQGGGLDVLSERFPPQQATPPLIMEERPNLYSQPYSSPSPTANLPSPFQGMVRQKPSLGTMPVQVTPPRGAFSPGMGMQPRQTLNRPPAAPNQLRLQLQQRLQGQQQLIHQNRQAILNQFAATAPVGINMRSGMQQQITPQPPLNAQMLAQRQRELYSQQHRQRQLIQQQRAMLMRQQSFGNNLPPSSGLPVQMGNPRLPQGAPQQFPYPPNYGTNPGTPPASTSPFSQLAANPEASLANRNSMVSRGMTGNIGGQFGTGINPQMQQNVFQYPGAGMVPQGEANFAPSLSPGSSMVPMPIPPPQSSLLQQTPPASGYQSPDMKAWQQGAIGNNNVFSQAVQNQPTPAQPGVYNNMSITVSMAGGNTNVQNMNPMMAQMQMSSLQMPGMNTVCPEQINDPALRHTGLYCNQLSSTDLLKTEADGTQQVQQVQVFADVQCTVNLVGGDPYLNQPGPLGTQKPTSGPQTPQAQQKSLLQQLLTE
Assay [5] addresses Peroxisome proliferator-activated receptor gamma/Nuclear receptor coactivator 3 (Homo sapiens, UniProt P37231). Type of assay: functional.
Assay [6] concerns the target Luciferin 4-monooxygenase (Photinus pyralis, UniProt P08659). In words: firefly luciferase enzyme inhibitors, dose response, biochemical, luminescence (AID 1891).
Assay [7] in a line: Luminescence Cell-Based Dose Confirmation HTS to Identify Inhibitors of Platelet Dense Granule Release. [Related pubchem assays: 1663 (Primary HTS), 1678 (Summary of Project)]. Type of assay: functional.
A further assay has as its target T2, Aminopeptidase N (Plasmodium falciparum FcB1/Columbia, UniProt O96935).
T2 sequence (O96935 whole entry): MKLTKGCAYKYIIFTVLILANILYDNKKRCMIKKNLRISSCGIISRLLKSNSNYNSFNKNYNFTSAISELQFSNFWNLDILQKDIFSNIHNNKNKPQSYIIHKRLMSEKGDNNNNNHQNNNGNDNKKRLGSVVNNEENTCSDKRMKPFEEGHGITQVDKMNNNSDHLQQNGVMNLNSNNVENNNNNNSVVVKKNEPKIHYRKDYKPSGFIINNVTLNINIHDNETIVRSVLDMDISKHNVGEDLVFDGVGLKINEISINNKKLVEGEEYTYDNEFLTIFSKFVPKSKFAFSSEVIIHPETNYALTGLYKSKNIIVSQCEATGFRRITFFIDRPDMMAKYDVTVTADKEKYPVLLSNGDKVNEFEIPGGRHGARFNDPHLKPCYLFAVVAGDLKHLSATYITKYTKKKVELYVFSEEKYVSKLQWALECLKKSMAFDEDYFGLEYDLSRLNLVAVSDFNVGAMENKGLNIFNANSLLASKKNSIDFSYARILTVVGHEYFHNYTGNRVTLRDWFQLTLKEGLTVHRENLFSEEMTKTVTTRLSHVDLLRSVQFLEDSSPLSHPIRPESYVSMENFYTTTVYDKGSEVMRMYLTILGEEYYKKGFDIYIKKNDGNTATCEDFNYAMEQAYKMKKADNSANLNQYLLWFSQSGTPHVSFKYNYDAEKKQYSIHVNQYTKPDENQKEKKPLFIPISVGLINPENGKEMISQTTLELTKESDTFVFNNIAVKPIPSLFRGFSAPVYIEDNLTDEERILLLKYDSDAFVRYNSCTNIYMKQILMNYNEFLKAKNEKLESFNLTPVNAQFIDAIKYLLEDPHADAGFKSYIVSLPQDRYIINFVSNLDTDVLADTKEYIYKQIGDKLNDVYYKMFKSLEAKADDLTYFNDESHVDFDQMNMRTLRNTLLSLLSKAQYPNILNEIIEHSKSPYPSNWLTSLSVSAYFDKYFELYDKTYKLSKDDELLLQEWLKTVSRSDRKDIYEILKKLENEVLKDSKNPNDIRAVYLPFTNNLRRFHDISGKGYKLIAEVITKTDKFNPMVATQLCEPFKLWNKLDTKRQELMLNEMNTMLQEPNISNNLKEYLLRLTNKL
The experiment in a line: P. falciparum M1AAP inhibitors, biochemical, fluorogenic H-Leu-NHMec substrate, 1536-well (AID 1445). Also noted: species or system Plasmodium falciparum 3D7, 3D7.

For assay [8], the target named is T3, Induced myeloid leukemia cell differentiation protein Mcl-1 (Homo sapiens, UniProt Q07820). In words: MCL1-BIM BH3 interaction inhibitors, dose response, biochemical, fluorescence polarization, BIM-BH3 peptide, 1536-well (AID 2217).
T3 sequence (Q07820 whole entry): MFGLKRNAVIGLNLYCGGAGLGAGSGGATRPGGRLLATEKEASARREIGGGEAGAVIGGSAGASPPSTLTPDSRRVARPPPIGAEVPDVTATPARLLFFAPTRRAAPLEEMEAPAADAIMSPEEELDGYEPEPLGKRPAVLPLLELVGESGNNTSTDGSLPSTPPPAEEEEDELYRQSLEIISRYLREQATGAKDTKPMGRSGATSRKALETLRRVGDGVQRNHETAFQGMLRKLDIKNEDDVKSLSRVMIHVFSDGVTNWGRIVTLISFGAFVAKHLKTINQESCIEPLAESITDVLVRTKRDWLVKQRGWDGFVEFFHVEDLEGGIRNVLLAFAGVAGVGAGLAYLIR
For assay [9], the target named is Bifunctional protein GlmU (Mycobacterium tuberculosis, UniProt P9WMN3). The experiment in a line: Inhibitors of Mycobacterial Glucosamine-1-phosphate acetyl transferase (GlmU). Secondary screen. On the set-up: species or system Mycobacterium tuberculosis H37Rv.
In another assay the target is Bcl-2-like protein 1 (Homo sapiens, UniProt Q07817). In words: BCL-XL inhibitors, dose response, selectivity assay for MCL1 inhibitor project, biochemical, fluorescence polarization, 1536-well (AID 2218).
Assay [10] concerns the target T3, Induced myeloid leukemia cell differentiation protein Mcl-1. Type of assay: functional.
For assay [11], the target named is DNA (cytosine-5)-methyltransferase 1 (Homo sapiens, UniProt P26358). The experiment in a line: DNMT1 methyltransferase inhibitors, confirmation, biochemical, fluorescent molecular beacon (AID 602386). The class given is functional.
Another assay addresses T4, Caspase-6 (Homo sapiens, UniProt P55212).
T4 sequence (P55212 whole entry): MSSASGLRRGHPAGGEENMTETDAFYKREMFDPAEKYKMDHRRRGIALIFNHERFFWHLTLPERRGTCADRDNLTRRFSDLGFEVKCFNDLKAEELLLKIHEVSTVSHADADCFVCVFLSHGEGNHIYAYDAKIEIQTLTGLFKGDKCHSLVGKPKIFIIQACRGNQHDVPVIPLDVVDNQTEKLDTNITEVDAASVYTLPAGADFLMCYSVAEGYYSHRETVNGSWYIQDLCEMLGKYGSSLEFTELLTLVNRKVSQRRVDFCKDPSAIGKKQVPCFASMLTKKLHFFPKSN
In words: human caspase-6 inhibitors, dose response, biochemical, VEID-R110 fluorescence, cherry-pick (AID 720632).

In assay [12] the target is T5, Histone-lysine N-methyltransferase NSD2 (Homo sapiens, UniProt O96028).
T5 sequence (O96028 whole entry): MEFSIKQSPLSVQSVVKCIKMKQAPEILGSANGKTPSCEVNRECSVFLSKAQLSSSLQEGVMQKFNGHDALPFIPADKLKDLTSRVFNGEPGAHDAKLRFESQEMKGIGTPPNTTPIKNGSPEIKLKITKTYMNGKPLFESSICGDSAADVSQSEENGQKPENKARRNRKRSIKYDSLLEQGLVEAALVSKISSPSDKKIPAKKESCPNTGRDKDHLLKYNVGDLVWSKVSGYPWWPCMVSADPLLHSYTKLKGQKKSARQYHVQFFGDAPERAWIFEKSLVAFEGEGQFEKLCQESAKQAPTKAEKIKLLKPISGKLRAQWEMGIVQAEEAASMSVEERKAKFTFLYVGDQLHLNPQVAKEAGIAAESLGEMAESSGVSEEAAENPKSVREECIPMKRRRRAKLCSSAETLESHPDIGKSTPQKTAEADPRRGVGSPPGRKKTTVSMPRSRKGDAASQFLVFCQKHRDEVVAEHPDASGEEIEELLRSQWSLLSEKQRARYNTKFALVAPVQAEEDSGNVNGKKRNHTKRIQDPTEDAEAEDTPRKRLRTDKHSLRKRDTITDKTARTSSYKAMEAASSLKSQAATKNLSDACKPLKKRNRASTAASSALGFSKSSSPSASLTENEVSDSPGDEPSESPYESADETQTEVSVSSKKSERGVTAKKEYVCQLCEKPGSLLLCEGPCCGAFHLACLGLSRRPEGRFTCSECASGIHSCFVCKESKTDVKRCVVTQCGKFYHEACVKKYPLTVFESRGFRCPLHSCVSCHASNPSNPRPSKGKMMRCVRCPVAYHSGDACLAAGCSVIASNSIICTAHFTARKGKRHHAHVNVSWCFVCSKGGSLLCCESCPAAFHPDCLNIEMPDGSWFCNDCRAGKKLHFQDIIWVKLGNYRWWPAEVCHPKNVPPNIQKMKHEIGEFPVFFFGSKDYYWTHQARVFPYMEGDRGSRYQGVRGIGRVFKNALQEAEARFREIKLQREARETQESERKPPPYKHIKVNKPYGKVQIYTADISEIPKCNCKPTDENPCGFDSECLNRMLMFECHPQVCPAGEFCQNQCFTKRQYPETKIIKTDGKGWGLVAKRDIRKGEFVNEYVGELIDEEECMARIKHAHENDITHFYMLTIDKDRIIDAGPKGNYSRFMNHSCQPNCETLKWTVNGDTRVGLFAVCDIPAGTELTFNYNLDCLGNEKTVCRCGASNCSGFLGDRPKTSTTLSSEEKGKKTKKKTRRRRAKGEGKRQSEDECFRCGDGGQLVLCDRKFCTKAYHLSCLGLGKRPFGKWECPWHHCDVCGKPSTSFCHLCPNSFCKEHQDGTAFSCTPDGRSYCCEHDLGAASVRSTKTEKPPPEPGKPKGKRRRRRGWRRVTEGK
Type of assay: biochemical.

Assay [13] has as its target Mothers against decapentaplegic homolog 3 (Homo sapiens, UniProt P84022). In words: Smad3 binding inhibitors, lysate ELISA, dose response, cell lysate, secondary confirmation, chemiluminescent ELISA, HEK293 lysate (AID 1058). Type of assay: functional. Background: ELISA stands for enzyme-linked immunosorbent assay.

The structures appear in SMILES notation. “And” between values parts separate entries of the source, which are not always exact repeats. Identical values can stand only once. The source made the active and inactive calls.

Chain of Mothers against decapentaplegic homolog 3 (P84022 whole entry): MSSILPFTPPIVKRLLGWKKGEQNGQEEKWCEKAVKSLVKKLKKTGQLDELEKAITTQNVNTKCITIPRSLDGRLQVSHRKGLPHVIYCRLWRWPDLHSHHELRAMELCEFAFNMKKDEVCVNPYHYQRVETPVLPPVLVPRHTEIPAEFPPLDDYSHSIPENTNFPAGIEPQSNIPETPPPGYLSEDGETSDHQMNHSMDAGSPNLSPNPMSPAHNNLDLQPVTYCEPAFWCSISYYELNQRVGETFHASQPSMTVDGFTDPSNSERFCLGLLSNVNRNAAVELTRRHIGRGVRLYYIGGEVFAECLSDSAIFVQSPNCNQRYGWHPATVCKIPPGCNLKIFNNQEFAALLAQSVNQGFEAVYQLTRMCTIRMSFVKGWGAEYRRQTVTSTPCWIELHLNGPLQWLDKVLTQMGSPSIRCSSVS
Chain of Peroxisome proliferator-activated receptor gamma/Nuclear receptor coactivator 3 (P37231 whole entry): as the sequence (P37231 whole entry) above
Chain of Peroxisome proliferator-activated receptor gamma/Nuclear receptor coactivator 3 (Q9Y6Q9 whole entry, further chain): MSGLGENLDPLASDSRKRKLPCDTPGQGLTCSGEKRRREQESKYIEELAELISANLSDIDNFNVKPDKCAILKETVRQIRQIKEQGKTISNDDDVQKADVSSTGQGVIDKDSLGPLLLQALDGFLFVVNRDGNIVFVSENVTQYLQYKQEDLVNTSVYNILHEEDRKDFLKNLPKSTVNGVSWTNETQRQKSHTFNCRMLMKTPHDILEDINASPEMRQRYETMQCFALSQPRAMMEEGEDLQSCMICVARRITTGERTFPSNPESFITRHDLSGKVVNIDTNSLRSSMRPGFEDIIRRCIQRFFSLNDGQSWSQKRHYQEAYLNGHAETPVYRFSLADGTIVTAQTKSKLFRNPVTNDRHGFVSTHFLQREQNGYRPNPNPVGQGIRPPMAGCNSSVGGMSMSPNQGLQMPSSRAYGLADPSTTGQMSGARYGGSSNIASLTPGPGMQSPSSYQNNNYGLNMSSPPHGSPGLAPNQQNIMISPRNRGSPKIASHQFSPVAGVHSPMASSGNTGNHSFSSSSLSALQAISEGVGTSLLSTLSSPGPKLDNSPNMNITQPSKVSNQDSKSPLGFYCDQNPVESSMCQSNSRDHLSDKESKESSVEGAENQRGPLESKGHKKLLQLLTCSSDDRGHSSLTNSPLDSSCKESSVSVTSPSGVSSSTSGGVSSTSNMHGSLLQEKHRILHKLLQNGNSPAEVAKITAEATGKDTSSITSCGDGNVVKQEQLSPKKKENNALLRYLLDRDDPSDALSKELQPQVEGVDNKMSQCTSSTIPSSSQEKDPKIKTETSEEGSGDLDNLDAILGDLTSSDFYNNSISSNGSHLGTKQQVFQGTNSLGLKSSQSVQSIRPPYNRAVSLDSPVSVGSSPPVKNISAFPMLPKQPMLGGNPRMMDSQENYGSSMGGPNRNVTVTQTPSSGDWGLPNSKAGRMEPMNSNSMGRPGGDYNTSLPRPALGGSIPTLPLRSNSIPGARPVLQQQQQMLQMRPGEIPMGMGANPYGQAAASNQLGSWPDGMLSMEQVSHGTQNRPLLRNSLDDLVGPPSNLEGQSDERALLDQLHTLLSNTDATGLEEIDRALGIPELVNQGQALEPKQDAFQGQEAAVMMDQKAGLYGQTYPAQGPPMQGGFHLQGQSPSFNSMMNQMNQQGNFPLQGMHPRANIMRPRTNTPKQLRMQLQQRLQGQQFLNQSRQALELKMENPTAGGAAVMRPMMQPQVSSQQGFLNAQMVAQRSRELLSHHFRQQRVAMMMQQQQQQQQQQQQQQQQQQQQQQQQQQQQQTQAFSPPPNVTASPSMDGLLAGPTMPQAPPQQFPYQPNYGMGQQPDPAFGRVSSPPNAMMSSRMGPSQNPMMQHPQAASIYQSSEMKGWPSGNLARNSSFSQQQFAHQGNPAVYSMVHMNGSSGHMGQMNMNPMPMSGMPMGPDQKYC

For `O=C(c1cc2c(s1)-c1ccccc1S(=O)(=O)C2)N1CCN(Cc2ccccc2)CC1`, the EC50 in assay [1] was > 50 µM (active).
For `O=C(Nc1ccc([N+](=O)[O-])cc1)Nn1cnnc1`, the half-inhibitory concentration (IC50) was 1.03 µM (active) at Aspartyl aminopeptidase and > 59.6 µM (not active) at Procathepsin L.
For `COc1cc(C(=O)NC2CCCCC2)ccc1OCc1ccc(Cl)cc1Cl`, the CC50 in assay [2] was 24.7 µM (active).
Consider `O=C(COC(=O)c1sc2ccccc2c1Cl)NC1CCCCC1`, for which the EC50 in assay [3] was > 79.4 µM (not active); in assay [4], > 79.4 µM (not active); in assay [5] it was > 79.4 µM (not active); in assay [6] it was > 112 µM (not active); in [7], > 112 µM (not active).
For `CCOC(=O)c1nn(-c2ccc(F)cc2)c2nc(Nc3ccccc3)cc(=O)n12`, the 50% cytotoxic concentration (CC50) in [2] is > 40 µM (active).
Regarding `O=C(O)c1ccc(-n2cccc2/C=N\NC(=O)c2cc3cc(Br)ccc3o2)cc1`, the IC50 at Aminopeptidase N is 37.1 µM (active); in [8], 12.1 µM (not active); in assay [9] it was 66 µM (active); against Bcl-2-like protein 1 it was > 109 µM (not active); in [10] it was 1.72 µM (active); in [11], 4.36 µM (active). Besides, the concentration at half-maximal activity (AC50) at Caspase-6 was 801 nM (active); in assay [12] it was 7.63 µM (active).
In the case of `COC(=O)c1c(-c2cccc(C)c2)csc1N`, in assay [1], the concentration giving a half-maximal response (EC50) was > 50 µM (active).
On to `Cc1c(C(=O)Nn2cnnc2)oc2ccccc12`, for which the half-inhibitory concentration (IC50) at Aspartyl aminopeptidase is 0.664 µM (active); at Procathepsin L it was > 59.6 µM (not active).
In the case of `NOC(=O)C1=CC(=C(c2ccc(O)c(C(=O)ON)c2)c2ccc(O)c(C(=O)ON)c2)C=CC1=O`, in assay [13], the IC50 is reported as 22.5 µM (not active).
Take `Cc1cc(C)c(C#N)c(SCc2cc3c(cc2Cl)OCO3)n1`: the EC50 in assay [3], in assay [4] and in [5] was > 79.4 µM (not active) throughout.
As to `COc1ccccc1C(c1cc2c(cc1O)OCO2)N1CCOCC1` (stereo unspecified), the IC50 in assay [13] is 35.3 µM (not active) and < 2.5 µM (not active).
